Experimental data from PubChem BioAssay AID200 (DTP/NCI, 2004).
Values joined by “and” are separate entries in the source; they are usually repeats but may differ in a detail not shown here. Equal values may be shown once. Toxic doses and inconclusive results are not listed. Where a SMILES comes first, the peptide text is derived from it. [ ]: non-standard residue; d: D form. The star is where a group is joined. Nle = CCCC[CH](N)C(=O)O; Cbz = O=C(OCc1ccccc1)*; Nva = CCC[CH](N)C(=O)O

System: B6C3F1 mice, B16 melanoma ip, median survival T/C
Test: NCI In Vivo Anticancer Drug Screen. Data for tumor model B16 Melanoma (intraperitoneal) in B6C3F1 mice
Details: endpoint: median survival time, higher = longer survival
Protocol: The antitumor activity of compounds was measured in mice bearing transplantable tumors. Survival or tumor size were measured and the results are expressed as the measurement made in the treated group (T) divided by the measurement made in the vehicle treated control group (C). The tumor model used in this assay is B16 Melanoma (intraperitoneal) in B6C3F1 mice

[1] = dose: 12.5 mg/kg/injection, schedule: Q01DX009 (ip), vehicle: water
[2] = dose: 25.0 mg/kg/injection, schedule: Q01DX009 (ip), vehicle: water
[3] = dose: 50.0 mg/kg/injection, schedule: Q01DX009 (ip), vehicle: water
[4] = dose: 100.0 mg/kg/injection, schedule: Q01DX009 (ip), vehicle: water
[5] = dose: 200.0 mg/kg/injection, schedule: Q01DX009 (ip), vehicle: water
[6] = dose: 3.12 mg/kg/injection, schedule: Q01DX009 (ip), vehicle: saline with Tween-80
[7] = dose: 6.25 mg/kg/injection, schedule: Q01DX009 (ip), vehicle: Klucel (hydroxypropylcellulose) (HPC)
[8] = dose: 6.25 mg/kg/injection, schedule: Q01DX009 (ip), vehicle: saline with Tween-80
[9] = dose: 12.5 mg/kg/injection, schedule: Q01DX009 (ip), vehicle: Klucel (hydroxypropylcellulose) (HPC)
[10] = dose: 12.5 mg/kg/injection, schedule: Q01DX009 (ip), vehicle: saline with Tween-80
[11] = dose: 25.0 mg/kg/injection, schedule: Q01DX009 (ip), vehicle: Klucel (hydroxypropylcellulose) (HPC)
[12] = dose: 25.0 mg/kg/injection, schedule: Q01DX009 (ip), vehicle: saline with Tween-80
[13] = dose: 50.0 mg/kg/injection, schedule: Q01DX009 (ip), vehicle: saline with Tween-80
[14] = dose: 12.5 mg/kg/injection, schedule: Q01DX009 (ip), vehicle: saline
[15] = dose: 25.0 mg/kg/injection, schedule: Q01DX009 (ip), vehicle: saline
[16] = dose: 50.0 mg/kg/injection, schedule: Q01DX009 (ip), vehicle: saline
[17] = dose: 400.0 mg/kg/injection, schedule: Q01DX009 (ip), vehicle: saline
[18] = dose: 50.0 mg/kg/injection, schedule: Q01DX009 (ip), vehicle: Klucel (hydroxypropylcellulose) (HPC)
[19] = dose: 100.0 mg/kg/injection, schedule: Q01DX009 (ip), vehicle: Klucel (hydroxypropylcellulose) (HPC)
[20] = dose: 200.0 mg/kg/injection, schedule: Q01DX009 (ip), vehicle: Klucel (hydroxypropylcellulose) (HPC)
[21] = dose: 100.0 mg/kg/injection, schedule: Q01DX009 (ip), vehicle: saline with Tween-80
[22] = dose: 200.0 mg/kg/injection, schedule: Q01DX009 (ip), vehicle: saline with Tween-80

For C=C(C)[C@]12CC(C)C34OC(/C=C\C=C\CCCCCCCCC)(O[C@@H]1[C@@H]3[C@@H]1O[C@]1(CO)[C@@H](O)[C@]1(O)C(=O)C(C)=C[C@@H]41)O2 (stereo partly specified), the T/C (dose: 0.09 mg/kg/injection, schedule: Q01DX009 (ip), vehicle: distilled water + alcohol) was 110 % of control, the T/C (dose: 0.18 mg/kg/injection, schedule: Q01DX009 (ip), vehicle: distilled water + alcohol) was 110 % of control and the T/C (dose: 0.37 mg/kg/injection, schedule: Q01DX009 (ip), vehicle: distilled water + alcohol) was 104 % of control.

For O=C1C2C3C=CC(C2C(=O)N1CO)C1C2C(=O)N(CO)C(=O)C2C31 (stereo unspecified), the T/C (dose: 6.25 mg/kg/injection, schedule: Q01DX009 (ip), vehicle: water) was 102 % of control, the T/C [1] was 109 % of control and the T/C [2] was 113 % of control.

For O=C(O)C1CC(c2ccccc2)=NN1c1ccccc1 (stereo unspecified), the T/C [1] was 113 % of control, the T/C [2] was 120 % of control and the T/C [3] was 107 % of control. For the same compound, the T/C [4] was 103 % of control and the T/C [5] was 110 % of control.

In the case of O=c1s[se]c2ccccc12, the T/C (dose: 1.56 mg/kg/injection, schedule: Q01DX009 (ip), vehicle: Klucel (hydroxypropylcellulose) (HPC)) is reported as 94 % of control, the T/C (dose: 1.56 mg/kg/injection, schedule: Q01DX009 (ip), vehicle: saline with Tween-80) is reported as 104 % of control and the T/C (dose: 3.12 mg/kg/injection, schedule: Q01DX009 (ip), vehicle: Klucel (hydroxypropylcellulose) (HPC)) is reported as 108 % of control. For the same compound, the T/C [6] was 114 % of control, the T/C [7] was 97 % of control and the T/C [8] was 87 % of control. For the same compound, the T/C [9] was 98 % of control, the T/C [10] was 103 % of control and the T/C [11] was 94 % of control. For the same compound, the T/C [12] was 105 % of control and the T/C [13] was 92 % of control.

With Cc1cc([NH-])c([NH-])cc1C.[Cl][Pt+2][Cl] the T/C (dose: 1.25 mg/kg/injection, schedule: Q01DX009 (ip), vehicle: saline with Tween-80) was 112 % of control and the T/C (dose: 10.0 mg/kg/injection, schedule: Q01DX009 (ip), vehicle: saline with Tween-80) was 161 % of control.

In the case of COC(=O)[C@@H]1c2cc3c(c(O)c2[C@@H](OC)C[C@@]1(C)O)C(=O)c1c(O)cc2c(c1C3=O)OC1O[C@@]2(C)[C@H](O)[C@@H](N(C)C)[C@@H]1O, the T/C [14] is reported as 158 % of control, the T/C [15] is reported as 159 % of control and the T/C [16] is reported as 158 % of control.

With O=C1C=CC(=O)O1 (tested in a mixture with another compound) the T/C [14] was 101 % of control, the T/C (dose: 12.5 mg/kg/injection, schedule: Q04DX003 (ip), vehicle: saline) was 104 % of control and the T/C [15] was 113 % of control. For the same compound, the T/C (dose: 25.0 mg/kg/injection, schedule: Q04DX003 (ip), vehicle: saline) was 101 % of control and 106 % of control, the T/C [16] was 117 % of control and the T/C (dose: 50.0 mg/kg/injection, schedule: Q04DX003 (ip), vehicle: saline) was 108 % of control. For the same compound, the T/C [17] was 123 % of control.

With CN1c2c(nc(N)[nH]c2=O)NCC1CCNc1ccc(C(=O)NC(CCC(=O)O)C(=O)O)cc1 (stereo unspecified) the T/C (dose: 50.0 mg/kg/injection, schedule: Q01DX009 (ip), vehicle: sodium bicarbonate) was 105 % of control and the T/C (dose: 100.0 mg/kg/injection, schedule: Q01DX009 (ip), vehicle: sodium bicarbonate) was 114 % of control.

For COc1cc(OC)c(NC(=O)ON2C(=O)c3ccccc3C2=O)cc1Cl, the T/C [6] was 98 % of control, the T/C [8] was 104 % of control and the T/C [10] was 104 % of control. The T/C [12] was 96 % of control and the T/C [13] was 87 % of control.

CC(C)(C)OC(=O)NC(Cc1ccccc1)C(=O)O (stereo unspecified) was tested, and the T/C [18] was 104 % of control, the T/C [19] was 88 % of control and the T/C [20] was 100 % of control.

In the case of CC(C)CC(=O)NC(C(=O)NC(C(=O)NC(CC(C)C)C(O)CC(=O)NC(C)C(=O)NC(CC(C)C)C(O)CC(=O)O)C(C)C)C(C)C (stereo unspecified), the T/C [7] is reported as 102 % of control, the T/C [9] is reported as 93 % of control and the T/C [11] is reported as 96 % of control. For the same compound, the T/C [18] was 88 % of control.

For O=c1oc2c(O)c(O)cc3c(=O)oc4c(O)c(O)cc1c4c23, the T/C [7] was 116 % of control, the T/C [9] was 117 % of control and the T/C [10] was 123 % of control. For the same compound, the T/C [11] was 114 % of control and 120 % of control, the T/C [12] was 113 % of control and the T/C [18] was 114 % of control and 87 % of control. The T/C [13] was 114 % of control, the T/C [19] was 108 % of control and 88 % of control and the T/C [21] was 105 % of control. The T/C [20] was 116 % of control, the T/C [22] was 115 % of control and the T/C (dose: 400.0 mg/kg/injection, schedule: Q01DX009 (ip), vehicle: saline with Tween-80) was 119 % of control.

For N#CC(OC1OC(COC2OC(CO)C(O)C(O)C2O)C(O)C(O)C1O)c1ccccc1 (stereo unspecified), the T/C [15] was 101 % of control, the T/C [2] was 100 % of control and the T/C [16] was 104 % of control. The T/C [3] was 102 % of control, the T/C (dose: 100.0 mg/kg/injection, schedule: Q01DX009 (ip), vehicle: saline) was 105 % of control and the T/C [4] was 102 % of control. For the same compound, the T/C (dose: 200.0 mg/kg/injection, schedule: Q01DX009 (ip), vehicle: saline) was 106 % of control, the T/C [5] was 117 % of control and the T/C [17] was 101 % of control. For the same compound, the T/C (dose: 400.0 mg/kg/injection, schedule: Q01DX009 (ip), vehicle: water) was 106 % of control, the T/C (dose: 800.0 mg/kg/injection, schedule: Q01DX009 (ip), vehicle: saline) was 100 % of control and the T/C (dose: 800.0 mg/kg/injection, schedule: Q01DX009 (ip), vehicle: water) was 106 % of control.

For Cc1cc(NC(=S)SCc2ccc3c(c2)OCO3)ccc1Cl, the T/C [18] was 103 % of control and the T/C [19] was 112 % of control.

CC(O)C(NC(=O)OC(C)(C)C)C(=O)ON1C(=O)CCC1=O (stereo unspecified) was tested, and the T/C [13] was 98 % of control, the T/C [21] was 96 % of control and the T/C [22] was 91 % of control.

In the case of CCc1cc2c(cc1C(C)=O)C(C)(C)CCC2(C)C, the T/C [8] is reported as 89 % of control, the T/C [10] is reported as 95 % of control and the T/C [12] is reported as 106 % of control.

With CCCCC(NC(=O)C(CCC)NC(=O)OCc1ccccc1)C(=O)O (stereo unspecified) (Cbz-[Nva]-[Nle]-OH; configuration not given here) the T/C [19] was 104 % of control and the T/C [20] was 101 % of control.

Cc1c(O)ccc(=O)n1O was tested, and the T/C (dose: 16.0 mg/kg/injection, schedule: Q01DX009 (ip), vehicle: saline with Tween-80) was 101 % of control, the T/C (dose: 32.0 mg/kg/injection, schedule: Q01DX009 (ip), vehicle: saline with Tween-80) was 98 % of control and the T/C (dose: 64.0 mg/kg/injection, schedule: Q01DX009 (ip), vehicle: saline with Tween-80) was 101 % of control. For the same compound, the T/C (dose: 128.0 mg/kg/injection, schedule: Q01DX009 (ip), vehicle: saline with Tween-80) was 104 % of control.
